Experimental data as given in US20020001652A1, “Process for making granulated N-[N- (3, 3-dimethylbutyl) -L-alpha -aspartyl] -L- phenylalanine 1-methyl ester” (priority 2000, published 2002).

Columns and labels:
[1] = bulk density (loose), cup of known volume; assay type: physicochemical; details: Example 2; granulation through 20 mesh, retained on 60 mesh, versus initial powder
Procedure: In particular, bulk density (loose) was measured using a cup of known volume. The cup was filled with sample, excess was removed and the sample was weighed.

[2] = HPLC analysis of neotame degradation during granulation; assay type: physicochemical; details: roller compaction, cone mill, sieving
Description: A lab scale TF-Mini roller compactor (Vector Corp., Marion, Iowa) was used in conjunction with a cone mill and a Ro-Tap testing sieve shaker (model B, CE Tyler Combustion Engineering, Inc., Mentor, Ohio) for testing and producing granulated neotame. The neotame powder flowed well into the feed hopper. […] The energy consumption of the rolls and feed screw were within the desired limits. The flakes were broken down into granular particles using a cone mill. The granulation was sieved to obtain a particle size that passed through 20 mesh and was retained on 60 mesh.

bulk density [1]: 0.4 g/cc
degradation of neotame during granulation process [2]: no degradation
SMILES: COC(=O)[C@H](Cc1ccccc1)NC(=O)[C@H](CC(=O)O)NCCC(C)(C)C [neotame, N-[N-(3,3-dimethylbutyl)-L-α-aspartyl]-L-phenylalanine 1-methyl ester]
